Results on 15 compounds are retold here after US20220265656A1, “COMBINATION THERAPIES WITH IRE1 SMALL MOLECULE INHIBITORS” (Cornell University, priority 2019, published 2022).

A short description of data set [1]: Metabolic assays of N,N-dimethyl compounds. Type of data set: in vitro ADME. The settings on record: data not shown.
In data set [2] the test system is IRE1a-mediated XBP1 splicing. Put plainly: Target engagement in pancreas and salivary gland (XBP1 splicing RT-qPCR). The settings on record: mice, 30 mg/kg oral gavage, 6 hours, compared to control and Compound B. It counts as in vivo, mouse. The procedure: Mice (n=3 per group) were orally gavaged with 30 mg/kg vehicle control or IRE1 inhibitors dissolved in H2O. After 6 hours, mice were euthanized and pancreas and salivary gland tissues were isolated, snap frozen on dry ice, and used for subsequent RT-qPCR analysis of beta-actin, XBP1s and total XBP1. Gene expression was evaluated by quantitative PCR for XBP1s and total XBP1 transcripts using the 2^(−ΔCT) method for calculating normalized gene expression. Gene expression levels were normalized to Actb transcripts. XBP1 splicing is calculated as XBP1s expression divided by total XBP1 expression.

Data set [3] deals with IRE1a-dependent XBP1 splicing. Kind of data set: Inhibition of IRE1a-dependent XBP1 splicing in ovarian cancer cells in vivo. Further details: species or system mouse. The settings on record: mice with metastatic ovarian cancer, single oral dose 45 mg/kg, 24 hours. How it is done: Mice (n=3) with established metastatic ovarian cancer were orally gavaged with 45 mg/kg vehicle control or inhibitor dissolved in H2O. The inhibitor was Compound C. Compound C is 2-chloro-N-(5-(2-(((1r,4r)-4-(dimethylamino)cyclohexyl)amino)-8-ethylquinazolin-6-yl)-6-methylpyridin-2-yl)benzenesulfonamide, Compound 91, described herein. After 24 hours, mice were euthanized, ascites-resident cells were extracted and tumor cells, dendritic cells (DCs), and CD4+ T cells were isolated by FACS. The samples were used for subsequent RT-qPCR analysis of beta-actin, XBP1s and total XBP1. Gene expression was evaluated by quantitative PCR for XBP1s and total XBP1 transcripts using the 2^(−ΔCT) method for calculating normalized gene expression. Gene expression levels were normalized to Actb transcripts. XBP1 splicing is calculated as XBP1s expression divided by total XBP1 expression. A single oral dose of Compound C suppressed IRE1a-dependent XBP1 splicing in tumor cells and relevant immune cells in vivo over 24 hours, FIG. 7.
Mice (n=3) with established metastatic ovarian cancer were orally gavaged with 45 mg/kg vehicle control or inhibitor dissolved in H2O. […] Gene expression was evaluated by quantitative PCR for XBP1s and total XBP1 transcripts using the 2^(−ΔCT) method for calculating normalized gene expression. […] XBP1 splicing is calculated as XBP1s expression divided by total XBP1 expression. […]

A short description of a further data set: in vivo. The settings on record: mouse.
Data set [4] can be described thus: Bioavailability assay (pharmacokinetic study). To be noted: mouse; IV 1 mg/kg, PO 10 or 30 mg/kg.
Data set [5] deals with T1, IRE1a (Homo sapiens, UniProt O75460). Put plainly: IRE1a Endoribonuclease Nanoluciferase Assay in 293T cells. Type of data set: cell-based. To be noted: XBP1 luciferase reporter in 293T cells, ER stressor. Further details: endogenous in cells; host or cells: 293T cells. How it is done: Compounds disclosed herein were assessed for disruption of IRE1 signaling using a IRE1a Endoribonuclease Nanoluciferase Assay. Briefly, 2.5×10^6 293T cells were seeded in a 10 cm^2 tissue culture plate. About 24 hours later, the cells were transfected with Effectene. In a 15 mL tube, the following was added: 2 ug XBP1 luciferase reporter plasmid (PGK-Luc2-P2A-XBP1u-Nanoluciferase-PEST); 300 ul EC buffer; and 16 ul Enhancer, followed by incubation at room temp for 5 minutes. Next, 60 ul Effectene (Qiagen 301427) was added, followed by incubation at room temperature for 10 minutes, 2.6 mL cDMEM media was added. Old media was aspirated from the cells, followed by addition of 7 mL fresh media. Full transfection mixture was added dropwise to cells. Cells were incubated for 6 hours, followed by trypsinization, centrifugation and resuspension in 11 mL fresh cDMEM media, 100 uL of cells were plated per a well in a 96 well plate. A day later, ER stressors of choice +/−inhibitors were added. To harvest, media was aspirated from cells completely, then 50 uL 1× passive lysis buffer (Promega: E1941) was added per well and put on shaker (300 rpm) for 30 minutes at room temperature. Cells were centrifuged, and 15 uL sample per well was added to a new, opaque white 384 well plate (Corning 3570), 15 uL OneGlo (nanoluciferase kit, Promega N1630) was added. Plates were spun down, placed on shaker (300 rpm) for 10 minutes. Plates were read on luminometer, 1000 ms integration time per well, 15 uL Stop and Glo (nanoluciferase kit) was added. Plates were spun down, placed on shaker (300 rpm) for 10 minutes. Plates were read on luminometer, 1000 ms second integration time per well. Recordings are provided below in Table 4.
Background: A reporter such as luciferase makes a cellular process visible.

Data set [6] has as its target T1, IRE1a. Kind of data set: In vitro FRET assay (IRE1a cleavage of XBP1 RNA probe). Also on record: purchased SignalChem. The settings on record: 2 nM IRE1a. Type of data set: biochemical. How it is done: In vitro FRET assay was performed to evaluate the ability of select compounds to inhibit IRE1, the results of which are summarized in Table 3. To perform the in vitro FRET assay, 1× complete assay buffer (CAB; […], 50 mM sodium citrate pH 7.15, 1 mM magnesium acetate, 0.02% tween 20) was used to dilute SignalChem IRE1a protein to a final concentration of 2 nM. Selected compounds were serially diluted with DMSO in a non-binding black 384-well plate for a total of 15 ul in each well, 2 ul of the serially diluted compound or DMSO control were then added to new wells containing 98 ul of 1×CAB, for a total volume of 100 ul, 10 ul of which were then transferred to wells of a new plate, 5 ul of the diluted IRE1a was then added to each well, 5 ul of a […] XBP1 RNA probe was then added to each well. Fluorescence was then read over 30 minutes in kinetic mode (485/515 nm).
Two RNA probes were used, XBP1 wildtype (SEQ ID NO: 2) which is able to be spliced by active IRE1a or XBP1 mutant (SEQ ID NO: 3) which is unable to be spliced. Each probe contained a 5′ 6-FAM modification and a 3′ IOWA Black FQ modification. […]

The next data set relates to IRE1a/XBP1 pathway. Put plainly: Inhibition of endogenous XBP1 splicing in 293T cells with tunicamycin. Type of data set: cell-based, human. How it is done:
Gene expression was evaluated by quantitative PCR for XBP1s and total XBP1 transcripts using the 2^(−ΔCT) method for calculating normalized gene expression. Gene expression levels were normalized to ACTB transcripts. XBP1 splicing was calculated as actin-normalized XBP1s expression divided by actin-normalized total XBP1 expression.

Where a name gives a salt, the structure may show the parent alone. Bounds are passed on as bounds.

T1 sequence (O75460 19-977): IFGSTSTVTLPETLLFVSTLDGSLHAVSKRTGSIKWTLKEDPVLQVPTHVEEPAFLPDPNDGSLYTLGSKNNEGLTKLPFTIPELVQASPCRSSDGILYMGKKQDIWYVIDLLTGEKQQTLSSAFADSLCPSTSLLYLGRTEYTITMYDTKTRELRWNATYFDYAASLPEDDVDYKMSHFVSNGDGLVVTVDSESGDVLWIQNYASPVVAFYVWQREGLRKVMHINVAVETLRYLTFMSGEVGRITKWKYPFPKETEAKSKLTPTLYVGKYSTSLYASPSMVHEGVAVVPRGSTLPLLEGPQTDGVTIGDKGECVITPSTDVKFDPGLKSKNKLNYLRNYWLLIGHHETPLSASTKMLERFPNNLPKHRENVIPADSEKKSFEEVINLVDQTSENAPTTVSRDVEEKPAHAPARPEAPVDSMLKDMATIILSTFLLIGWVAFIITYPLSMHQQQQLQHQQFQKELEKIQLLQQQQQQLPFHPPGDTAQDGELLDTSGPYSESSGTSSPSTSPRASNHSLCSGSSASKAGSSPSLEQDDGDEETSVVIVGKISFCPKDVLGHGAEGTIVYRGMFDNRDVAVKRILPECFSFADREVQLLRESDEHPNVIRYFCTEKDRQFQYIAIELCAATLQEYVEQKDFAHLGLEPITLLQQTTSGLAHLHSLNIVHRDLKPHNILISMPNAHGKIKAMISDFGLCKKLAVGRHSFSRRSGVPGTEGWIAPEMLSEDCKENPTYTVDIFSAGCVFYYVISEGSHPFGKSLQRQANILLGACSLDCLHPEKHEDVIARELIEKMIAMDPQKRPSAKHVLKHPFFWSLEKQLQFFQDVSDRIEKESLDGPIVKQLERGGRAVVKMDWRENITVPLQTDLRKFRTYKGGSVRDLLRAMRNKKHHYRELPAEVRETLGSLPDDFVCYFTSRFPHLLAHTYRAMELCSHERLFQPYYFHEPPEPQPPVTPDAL

Consider `CCc1cc(-c2ccc(NS(=O)(=O)c3ccccc3Cl)nc2OC)cc2cnc(N[C@H]3CC[C@H](N(C)C)CC3)nc12` [Compound 99, 2-chloro-N-(5-(2-(((1r,4r)-4-(dimethylamino)cyclohexyl)amino)-8-ethylquinazolin-6-yl)-6-methoxypyridin-2-yl)benzenesulfonamide], for which the “metabolism of N,N-dimethyl compounds” value in data set [1] is “removal of the methyl groups”. The “IRE1a-mediated XBP1 splicing in pancreas and salivary gland” value in data set [2] is “potently suppressed”. Besides, the “IRE1a-dependent XBP1 splicing in FACS-isolated ascites cells” value in data set [3] is recorded as “suppressed”.

As a reminder, the bioavailability is the share of a dose that reaches the circulation, judged against a reference dose that is usually intravenous. In the case of `CCc1cc(-c2ccc(NS(=O)(=O)c3ccccc3Cl)nc2OC)cc2cnc(N[C@H]3CC[C@H](N(C)C)CC3)nc12` [Compound 99], the bioavailability in “in vivo” was 70%. `CCc1cc(-c2ccc(NS(=O)(=O)c3ccccc3Cl)nc2C)cc2cnc(N[C@H]3CC[C@H](N)CC3)nc12` [Compound A, N-(5-(2-(((1r,4r)-4-aminocyclohexyl)amino)-8-ethylquinazolin-6-yl)-6-methylpyridin-2-yl)-2-chlorobenzenesulfonamide] showed an oral bioavailability in data set [4] of 4%. By EC50 is commonly meant the concentration giving half of the maximal effect. One may read the IC50 as the concentration needed to halve the response being measured. Read a low IC50 as greater potency in that assay. As to `CCc1cc(-c2ccc(NS(=O)(=O)c3ccccc3C)nc2OC)cc2cnc(N[C@H]3CC[C@H](N(C)C)CC3)nc12` [119; Formic Acid Salt], the EC50 at IRE1a [5] was ≤ 5 nM. In addition, at IRE1a [6], the IC50 was ≤ 5 nM. As for `COCc1cc(-c2ccc(NS(=O)(=O)c3ccccc3Cl)nc2OC)cc2cnc(N[C@H]3CC[C@H](N(C)C)CC3)nc12` [137; Formic Acid Salt], the EC50 on IRE1a [5] was ≤ 5 nM. The IC50 at IRE1a [6] is ≤ 5 nM. Regarding `CCc1c(F)c(-c2ccc(NS(=O)(=O)c3ccccc3Cl)nc2C)cc2cnc(N[C@H]3CC[C@H](N(C)C)CC3)nc12` [161; Formic Acid Salt], at IRE1a [5], the EC50 is ≤ 5 nM. The IC50 against IRE1a [6] is ≤ 5 nM. For `N[C@H]1CC[C@H](Nc2ncc3cc(-c4cc(F)c(NS(=O)(=O)c5ccccc5Cl)cc4F)ccc3n2)CC1` [53; Formic Acid Salt], at IRE1a [5], the EC50 is ≤ 5 nM. The concentration for half-maximal inhibition (IC50) against IRE1a [6] is ≤ 5 nM.

`CCc1cc(-c2ccc(NS(=O)(=O)c3cccc(Cl)c3Cl)nc2C)cc2cnc(N[C@H]3CC[C@H](N(C)C)CC3)nc12` [152; Formic Acid Salt]: the EC50 on IRE1a [5] was ≤ 5 nM. Also, the IC50 against IRE1a [6] is ≤ 5 nM.

For `CCc1cc(-c2ccc(NS(=O)(=O)c3ccccc3Cl)nn2)cc2cnc(N[C@H]3CC[C@H](NC)CC3)nc12` [61; Formic Acid Salt], the EC50 on IRE1a [5] is ≤ 5 nM. For the same compound, the 50% inhibitory concentration (IC50) against IRE1a [6] was ≤ 5 nM. Compound `Cc1nc(NS(=O)(=O)c2ccccc2Cl)c(F)cc1-c1ccc2nc(N[C@H]3CC[C@H](N(C)C)CC3)ncc2c1` [153; Formic Acid Salt] came in with an EC50 at IRE1a [5] of 5 to 50 nM. For the same compound, the IC50 against IRE1a [6] was ≤ 5 nM. Regarding `COc1nc(NS(=O)(=O)c2ccccc2Cl)c(F)cc1-c1cc(C)c2nc(N[C@H]3CC[C@H](N(C)C)CC3)ncc2c1` [145; Formic Acid Salt], the EC50 at IRE1a [5] is ≤ 5 nM. Moreover, the IC50 at IRE1a [6] was ≤ 5 nM. With `CCc1cc(-c2ccc(NS(=O)(=O)c3ccccc3Cl)nn2)cc2cnc(N[C@H]3CC[C@H](N(C)C)CC3)nc12` [64; Formic Acid Salt], the EC50 at IRE1a [5] is ≤ 5 nM. Besides, on IRE1a [6], the IC50 was ≤ 5 nM.

`CCc1cc(-c2ccc(NS(=O)(=O)c3ccccc3Cl)nc2OC)cc2cnc(N[C@H]3CC[C@H](N(C)C)CC3)nc12` [99; Formic Acid Salt]: at IRE1a [5], the EC50 is ≤ 5 nM. Besides, the IC50 against IRE1a [6] is ≤ 5 nM. `CCc1cc(-c2cnc(NS(=O)(=O)c3ccccc3Cl)nc2OC)cc2cnc(N[C@H]3CC[C@H](N(C)C)CC3)nc12` [154; Formic Acid Salt]: the EC50 at IRE1a [5] was ≤ 5 nM. For the same compound, the IC50 on IRE1a [6] was ≤ 5 nM. `CCc1cc(-c2ccc(NS(=O)(=O)c3ccccc3Cl)nc2C)cc2cnc(N[C@H]3CC[C@H](N(C)C)CC3)nc12` [Compound 91, 2-chloro-N-(5-(2-(((1r,4r)-4-(dimethylamino)cyclohexyl)amino)-8-ethylquinazolin-6-yl)-6-methylpyridin-2-yl)benzenesulfonamide]: in data set [1], the “metabolism of N,N-dimethyl compounds” value is “removal of the methyl groups”. Moreover, in the data set on IRE1a/XBP1 pathway, the “shift in potency between Compound A and Compound C (XBP1 splicing inhibition)” value is “approximately 3.6 ×”.
